Measured values published in patent US20080287541A1, “Kit for Treatment of Cancer” (Redoxia Israel Ltd., priority 2004, published 2008).
Where “and” joins values, the source holds several entries; their conditions need not be identical. Equal entries are not always repeated.

Legend:
various cell lines = conditions: BSO by itself; Dai et al. (1999); cited from earlier work
neuroblastoma cells = conditions: Nicole et al. (1998); cited from earlier work
[1] = system: MX-1 mammary carcinoma cells; experiment: 3H-Thymidine incorporation (proliferation) assay; format: cell-based, human; conditions: positive control, 10^−5 M doxorubicin; negative control = 100%
Procedure: Test compounds: Tested substances were dissolved in the appropriate medium as follows: carmustine (Sigma) was dissolved in ethanol, disulfiram (DSF) (Sigma) and curcumin (Fluka) were dissolved in dimethyl sulfoxide (DMSO), and DL-buthionine-sulfoximine (BSO) (Fluka) was dissolved in growth medium.
Compounds were added in a 1:10 serial dilution to the wells to obtain range of 10^−3 M to 10^−8 M final concentrations.
Controls: Positive control—10^−5M Doxorubicin. Negative control—Media containing the compound's solvent.
Cell lines: MX-1 mammary carcinoma cells were grown in RPMI-1640 medium, supplemented with 10% FBS, 2 mM L-glutamine, 1% penicillin/streptomycin and 1% non-essential amino acids.
MX-1 culturing and sub-culturing: MX-1 cells were grown in 75 cm^2 culture flasks. The culture medium was changed every other day and the day before the experiment. […]
Thymidine incorporation (proliferation) assay and cells harvesting: 24 hours after administering the compounds, to each well in the culture plates, ^3H-thymidine (NET-027 Thymidine [methyl-^3H] from NEN, 6.7 Ci/mmol) was added to final concentration of 0.4 μCi/well. […] Radioactivity was determined after adding 180 μl scintillation liquid (Microscint 20™, Packard).
Data calculation: The data represent the mean amount of thymidine counted per well (CPM). Average and standard deviation (SD) were calculated for each plate (12 wells). […]

SMILES | decrease in [GSH] in the cell (various cell lines) [%] | decrease of GSH content (neuroblastoma cells) [%] | Cell proliferation rate [1]
CCCCS(=N)(=O)CCC(N)C(=O)O (racemic) [BSO, buthionine sulfoximine] | 70 | 98 | –
COc1cccc2c1C(=O)c1c(O)c3c(c(O)c1C2=O)C[C@@](O)(C(=O)CO)C[C@@H]3O[C@H]1C[C@H](N)[C@H](O)[C@H](C)O1 [doxorubicin, Doxorubicin] | – | – | 4-11% and 4%
